Values quoted from earlier work as cited in patent US20020132846A1, “Use of gamma substituted gamma-butyrolactones to increase levels of their corresponding substituted gamma-hydroxybutyrate derivatives in humans” (priority 2001, published 2002).

Legend:
lactonase = details: oral ingestion, lactonase catalyzed hydrolysis; reference (7)
[1] = used according to prescribed dosing levels and schedules

CC(O)CCC(=O)O (stereo not shown) [4-methyl substituted gamma-hydroxybutyrate]
affinity for the GHB receptor (GHB receptor; compared with gamma-hydroxybutyrate itself): greater affinity than gamma-hydroxybutyrate itself | more potent at the receptor than gamma-hydroxybutyrate itself (GHB receptor; relative to gamma-hydroxybutyrate, reference (8)): 15%

O=C1CCCO1 [gamma-butyrolactone]
formation of the parent compound gamma-hydroxybutyrate (lactonase): rapidly forms the parent compound

O=C(O)CCCO [gamma-hydroxybutyrate]
physical or psychological addiction [1]: no reports of physical or psychological addiction
